“And” between values parts separate entries of the source, which are not always exact repeats. Equal values may be shown once.
SMILES	melting point
CC(C)C(C)(C)C(C)(C)C [2,2,3,3,4-pentamethylpentane]	-36 °C
COC(C)(C)OC [2,2-Dimethoxypropane]	-47 °C
CC(C)(CO)CO [2,2-dimethyl-1,3-propanediol]	128 °C and 126 °C
CC(C)(C)CS [2,2-dimethyl-1-propanethiol]	-67 °C
O=C(O)C1CC2=C3C=CCC=C3N=C2CN1 (stereo not drawn) [2,3,4,9-tetrahydro-1H-beta-carboline-3-carboxylic acid]	296 °C
O=[N+]([O-])c1ccc(Cl)c(Cl)c1Cl [2,3,4-Trichloronitrobenzene]	55.5 °C
O=[N+]([O-])c1c(Cl)c(Cl)cc(Cl)c1Cl [2,3,5,6-tetrachloro-nitrobenzene]	99.5 °C
O=[N+]([O-])c1c(Cl)c(Cl)cc(Cl)c1Cl [2,3,5,6-tetrachloronitrobenzene]	100 °C
OB(O)c1c(F)c(F)cc(F)c1F [2,3,5,6-tetrafluorobenzeneboronic acid]	143 °C
Oc1c(F)c(F)c(O)c(F)c1F [2,3,5,6-tetrafluorohydroquinone]	169 °C
Oc1c(F)c(F)cc(F)c1F [2,3,5,6-tetrafluorophenol]	29 °C
Oc1c(F)ccc(F)c1F [2,3,6-trifluorophenol]	34 °C
Oc1cccc(Cl)c1Cl [2,3-Dichlorophenol]	56 °C
c1ccc2cc3cc4ccccc4cc3cc2c1 [2,3-benzanthracene]	341 °C
CC(O)C(C)O (stereo unspecified) [2,3-butanediol]	25 °C
CC(=O)C(C)=NO [2,3-butanedione monoxime]	76 °C
Nc1cccc(Cl)c1Cl [2,3-dichloroaniline]	24 °C
O=S(=O)(Cl)c1cccc(Cl)c1Cl [2,3-dichlorobenzenesulfonyl chloride]	60 °C
Oc1cccc(Cl)c1Cl [2,3-dichlorophenol] [listing 1 of 2 here]	58 °C and 56 °C
Oc1cccc(Cl)c1Cl [2,3-dichlorophenol] [listing 2 of 2 here]	59 °C
OB(O)c1ccnc(Cl)c1Cl [2,3-dichloropyridine-4-boronic acid]	137 °C

SMILES	melting point
CC(C)C(C)(C)O [2,3-dimethyl-2-butanol]	-10 °C
Clc1ccc(C(c2ccccc2Cl)C(Cl)(Cl)Cl)cc1 (stereo unspecified) [2,4'-DDT]	75 °C
O=C(CBr)c1ccc(Br)cc1 [2,4'-dibromoacetophenone]	110 °C
CC(C)=C/C(C)(C)C [2,4,4-trimethyl-2-pentene]	-106 °C
Clc1cc(Cl)c(-c2ccccc2)cc1Cl [2,4,5-Trichlorobiphenyl]	78 °C
Clc1cc(Cl)c(-c2ccccc2)cc1Cl [2,4,5-trichlorobiphenyl]	78 °C
C=C[Si]1(C)O[Si](C)(C=C)O[Si](C)(C=C)O[Si](C)(C=C)O1 (stereo unspecified) [2,4,6,8-tetramethyl-2,4,6,8-tetravinylcyclotetrasiloxane]	-43 °C
Nc1c(Br)cc(Br)cc1Br [2,4,6-Tribromoaniline]	121 °C
Nc1c(Cl)cc(Cl)cc1Cl [2,4,6-trichloroaniline]	77 °C
Oc1c(F)cc(F)cc1F [2,4,6-trifluorophenol]	50 °C
Oc1c(I)cc(I)cc1I [2,4,6-triiodophenol]	158 °C
C=CCOc1nc(OCC=C)nc(OCC=C)n1 [2,4,6-tris(allyloxy)-1,3,5-triazine]	27 °C
O=[N+]([O-])c1ccc(Oc2ccc(Cl)cc2Cl)cc1 [2,4-Dichloro-1-(4-nitrophenoxy)benzene]	70.5 °C
Nc1ccc(F)cc1F [2,4-Difluoroaniline]	-7.5 °C
O=C=N/c1cc(ccc1C)N=C=O [2,4-Diisocyanato-1-methylbenzene]	20.5 °C
O=[N+]([O-])c1ccc(O)c([N+](=O)[O-])c1 [2,4-Dinitrophenol]	108 °C
Cc1ccc(N)cc1N [2,4-diaminotoluene]	99 °C
Nc1ccc(Br)cc1Br [2,4-dibromoaniline]	80 °C
Nc1ccc(Cl)cc1Cl [2,4-dichloroaniline]	61 °C
ClCc1ccc(Cl)cc1Cl [2,4-dichlorobenzyl chloride]	-3 °C
Oc1ccc(Cl)cc1Cl [2,4-dichlorophenol]	43 °C and 45 °C and 42.5 °C

SMILES	melting point
Cc1ccc(N)c(C)c1 [2,4-dimethylaniline]	-15 °C
Nc1ccc([N+](=O)[O-])cc1[N+](=O)[O-] [2,4-dinitroaniline]	178 °C
O=[N+]([O-])c1ccc(O)c([N+](=O)[O-])c1 [2,4-dinitrophenol]	108 °C
Cc1cc(Br)c(C)cc1Br [2,5-Dibromo-p-xylene]	74 °C
Cc1cc(Cl)c(C)cc1Cl [2,5-Dichloro-p-xylene]	70 °C
Cc1ccc(C)c(N)c1 [2,5-Xylidine]	15.5 °C
Cc1cc(Br)c(C)cc1Br [2,5-dibromo-p-xylene]	73 °C
O=C(O)c1cc(Cl)ccc1Cl [2,5-dichlorobenzoic acid]	153 °C
O=C(O)c1cc(Cl)ccc1Cl [2,5-dichlorobenzoic_acid]	156 °C
OB(O)c1cc(Cl)cnc1Cl [2,5-dichloropyridine-3-boronic acid]	154 °C
Clc1ccc(Cl)nc1 [2,5-dichloropyridine]	61 °C
COc1ccc(OC)c(C=O)c1 [2,5-dimethoxybenzaldehyde]	52 °C
C=C(C)CCC(=C)C [2,5-dimethyl-1,5-hexadiene]	-75 °C
C/C(C)=CC=C(/C)C [2,5-dimethyl-2,4-hexadiene]	13 °C
Cc1cc2[nH]c(C)cc(=O)n2n1 [2,5-dimethylpyrazolo[1,5-a]pyrimidin-7(4h)-one]	253 °C
CC(=O)CCC(C)=O [2,5-hexanedione]	-6 °C
Oc1c(Cl)cccc1Cl [2,6-Dichlorophenol]	68.5 °C
OB(O)c1c(C(F)(F)F)cccc1C(F)(F)F [2,6-bis(trifluoromethyl)benzeneboronic acid]	150 °C
Nc1c(Br)cccc1Br [2,6-dibromoaniline]	80 °C

The next lines start with the values.

melting point	SMILES
151 °C	O[C@H]1O[C@H](COCc2ccccc2)[C@@H](OCc2ccccc2)[C@H](OCc2ccccc2)[C@H]1OCc1ccccc1 [2,3,4,6-tetra-o-benzyl-alpha-D-glucopyranose]
69 °C	O[C@@H]1OC[C@@H](OCc2ccccc2)[C@@H](OCc2ccccc2)[C@@H]1OCc1ccccc1 [2,3,4-tri-o-benzyl-beta-D-arabinopyranose]
203 °C	OB(O)c1ccc(F)c(F)c1F [2,3,4-trifluorobenzeneboronic acid]
167 °C	O=Cc1ccc(O)c(O)c1O [2,3,4-trihydroxybenzaldehyde]
40 °C	COc1ccc(C=O)c(OC)c1OC [2,3,4-trimethoxybenzaldehyde]
245 °C	OB(O)c1cc(Cl)cc(Cl)c1Cl [2,3,5-trichlorobenzeneboronic acid]
195 °C	Nc1cc2ccccc2cc1N [2,3-diaminonaphthalene]
238 °C	OB(O)c1cccc(Cl)c1Cl [2,3-dichlorobenzeneboronic acid]
108 °C	O=Cc1cccc(O)c1O [2,3-dihydroxybenzaldehyde]
206 °C	O=C(O)c1cccc(O)c1O [2,3-dihydroxybenzoic acid]
164 °C	Oc1cc2ccccc2cc1O [2,3-dihydroxynaphthalene]
59 °C	COC1=C(OC)C(=O)C(C)=CC1=O [2,3-dimethoxy-5-methyl-1,4-benzoquinone]
69 °C	COc1cccc(B(O)O)c1OC [2,3-dimethoxybenzeneboronic acid]
46 °C	COc1cccc(C#N)c1OC [2,3-dimethoxybenzonitrile]
72 °C	COc1ccc(C(=O)c2ccc(OC)cc2OC)cc1 [2,4,4'-trimethoxybenzophenone]
121 °C	COc1cc(OC)c(C=O)c(OC)c1 [2,4,6-trimethoxybenzaldehyde] [listing 1 of 2 here]
120 °C	COc1cc(OC)c(C=O)c(OC)c1 [2,4,6-trimethoxybenzaldehyde] [listing 2 of 2 here]
154 °C	Cc1cc(C)c(C(=O)O)c(C)c1 [2,4,6-trimethylbenzoic acid]

melting point	SMILES
70 °C	COc1ccc(C=CC(=O)c2ccccc2)c(OC)c1 [2,4-Dimethoxychalcone]
55 °C	CC(C)(C)c1ccc(O)c(C(C)(C)C)c1 [2,4-di-tert-butylphenol]
192 °C	NC(=O)c1ccc(Cl)cc1Cl [2,4-dichlorobenzamide]
31 °C	O=[N+]([O-])c1ccc(Cl)cc1Cl [2,4-dichloronitrobenzene]
151 °C	NNC(=O)COc1ccc(Cl)cc1Cl [2,4-dichlorophenoxyacetic acid hydrazide]
47 °C	N#CCOc1ccc(Cl)cc1Cl [2,4-dichlorophenoxyacetonitrile]
146 °C	O=C(c1ccccc1)c1ccc(O)cc1O [2,4-dihydroxybenzophenone]
41 °C	COc1ccc(C(C)=O)c(OC)c1 [2,4-dimethoxyacetophenone]
206 °C	Cc1ccc(B(O)O)c(C)c1 [2,4-dimethylbenzeneboronic acid]
132 °C	O=[N+]([O-])c1cc([N+](=O)[O-])c2ccccc2c1O [2,4-dinitro-1-naphthol]
72 °C	CC1=CC=C(C)C2=C(C)C=CC(C)=C1C2 [2,5,7,10-tetramethylbicyclo[4.4.1]undeca-1,3,5,7,9-pentaene]
6 °C	Cc1cc(Br)ccc1Br [2,5-dibromotoluene]
112 °C	NC(=O)c1cc(F)ccc1F [2,5-difluorobenzamide]
99 °C	O=Cc1cc(O)ccc1O [2,5-dihydroxybenzaldehyde]
127 °C	O=C(O)Cc1cc(O)ccc1O [2,5-dihydroxyphenylacetic_acid]
114 °C	COc1ccc(OC)c(S(=O)(=O)Cl)c1 [2,5-dimethoxybenzenesulfonyl chloride]
-62 °C	Cc1ccc(C)o1 [2,5-dimethylfuran]
